Measured values as given in ChEMBL document CHEMBL1152626, “Glucose-based spiro-isoxazolines: a new family of potent glycogen phosphorylase inhibitors” (Bioorg Med Chem, 2009).

Biological target: T1, Glycogen phosphorylase, muscle form (Oryctolagus cuniculus, UniProt P00489)
T1 sequence (P00489 whole entry): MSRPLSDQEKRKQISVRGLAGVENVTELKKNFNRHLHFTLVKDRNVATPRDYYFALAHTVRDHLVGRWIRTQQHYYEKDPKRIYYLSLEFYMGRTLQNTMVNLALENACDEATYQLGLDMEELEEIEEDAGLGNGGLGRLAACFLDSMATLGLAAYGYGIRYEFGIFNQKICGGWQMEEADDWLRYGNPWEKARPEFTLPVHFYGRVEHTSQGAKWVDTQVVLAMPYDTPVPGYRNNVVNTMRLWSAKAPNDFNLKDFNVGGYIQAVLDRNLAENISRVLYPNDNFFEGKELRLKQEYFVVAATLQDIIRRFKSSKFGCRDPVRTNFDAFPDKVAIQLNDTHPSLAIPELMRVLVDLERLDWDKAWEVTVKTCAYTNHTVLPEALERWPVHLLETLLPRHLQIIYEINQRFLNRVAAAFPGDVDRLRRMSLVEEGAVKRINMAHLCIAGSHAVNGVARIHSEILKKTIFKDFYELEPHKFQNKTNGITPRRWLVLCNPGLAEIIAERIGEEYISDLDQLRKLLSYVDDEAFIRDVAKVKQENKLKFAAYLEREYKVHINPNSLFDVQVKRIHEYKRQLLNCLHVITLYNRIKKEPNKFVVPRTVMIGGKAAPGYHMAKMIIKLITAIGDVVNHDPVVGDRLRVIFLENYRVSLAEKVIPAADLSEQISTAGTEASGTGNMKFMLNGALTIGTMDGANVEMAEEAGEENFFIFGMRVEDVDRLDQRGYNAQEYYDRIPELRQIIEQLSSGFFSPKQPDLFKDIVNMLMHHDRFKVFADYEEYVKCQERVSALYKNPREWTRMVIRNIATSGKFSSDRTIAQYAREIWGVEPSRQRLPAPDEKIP
Experiment: Inhibition of rabbit muscle glycogen phosphorylase b

Compound: CC(=O)NN1C(=O)N[C@@]2(O[C@H](CO)[C@@H](O)[C@H](O)[C@H]2O)C1=O
- Ki: 550 µM

Compound: O=C1NCC(O)NC12O[C@H](CO)[C@@H](O)[C@H](O)[C@H]2O (some centres undefined)
- Ki: 59.7 µM

Compound: CN1C(=O)N[C@@]2(O[C@H](CO)[C@@H](O)[C@H](O)[C@H]2O)C1=O
- Ki: 1200 µM

Compound: NN1C(=O)N[C@@]2(O[C@H](CO)[C@@H](O)[C@H](O)[C@H]2O)C1=O
- Ki: 146 µM

Compound: O=C1NC(=O)[C@@]2(N1)OC[C@@H](O)[C@H](O)[C@H]2O
- Ki: > 11500 µM

Compound: O=C1NC(=O)[C@@]2(C[C@H](O)[C@@H]([C@@H](O)CO)O2)N1
- Ki: 8200 µM

Compound: O=C1NC(=O)[C@]2(C[C@H](O)[C@@H]([C@@H](O)CO)O2)N1
- Ki: 220000 µM

Compound: O=C1NC(=S)N[C@@]12OC[C@@H](O)[C@H](O)[C@H]2O
- Ki: > 10000 µM

Compound: O=C1N[C@@]2(O[C@H](CO)[C@@H](O)[C@H](O)[C@H]2O)C(=O)N1O
- Ki: 39 µM
